Laboratory results reported in US20240425491A1, “HETEROARYL COMPOUNDS USEFUL IN THE TREATMENT OF COGNITIVE DISORDERS” (University College Cardiff Consultants Limited, priority 2021, published 2024).

Tests used:
[1] = molecular target: T1, human α5β3γ2 GABAARs in mouse L(tk−) cells (Homo sapiens, UniProt P18507+P31644); experiment: In vitro electrophysiological recording assay (α5-GABAAR relative efficacy), QPatch; assay type: cell-based
T1 construct: expressed in transfected cells; host or cells: mouse L(tk−) cells, dexamethasone-inducible vector pMSGneo
How it was run: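 Whole-cell QPatch recordings at 20-22° C, −65 mV holding, in dexamethasone-induced (1 μM, 24 h) L(tk−) cells. Compound pre-applied ≥1 min, then co-applied with GABA EC10-20; percentage change in leak-corrected peak current, taken at ≥100× Ki, normalised to DMCM efficacy; 0.1% DMSO final.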

rat brain α5-GABAARs = molecular target: T2, rat brain α5-GABAARs (Rattus norvegicus, UniProt P18508+P19969); experiment: In vivo brain receptor occupancy assay ([3H]L-655,708 binding)
T2 construct: from tissue; host or cells: forebrain of male Sprague-Dawley rats, dosed in vivo
Protocol: The occupancy of rat brain benzodiazepine binding sites by compound was measured by its ability to inhibit the in vivo binding of [^3H] L-655,708. This radioligand is selective for the benzodiazepine site of GABAA receptors containing an α5 subunit (Quirk et al. 2001, Journal of Neurochemistry, 77 445-51) and has been used previously to measure in vivo α5-GABAAR occupancy (Atack et al. 2005, Neuropharmacology, 49 220-229).
[…] To block all benzodiazepine binding sites and therefore define the level of non-specific binding of [^3H] […]
Animals were then killed by stunning and decapitation, the whole brain was rapidly removed, the cerebellum and brainstem were discarded, leaving the forebrain which was weighed and homogenised in 10 volumes of ice-cold homogenising buffer (10 mM potassium phosphate buffer containing 100 mM KCl, pH 7.4). Aliquots of homogenate (500 μL) were then added directly to scintillation vials (total radioactivity) or filtered and washed with 5 ml Tris-HCL buffer (50 mM, pH 7.4) over Whatman glass microfiber GF/B filters. Washed filters were then placed in scintillation vials (three filters per vial) and scintillation fluid was added to all vials, which were then counted on a Perkin-Elmer Tricarb 2900TR scintillation counter (membrane-bound radioactivity). […]

T2 sequence (P19969 32-464 limits assumed): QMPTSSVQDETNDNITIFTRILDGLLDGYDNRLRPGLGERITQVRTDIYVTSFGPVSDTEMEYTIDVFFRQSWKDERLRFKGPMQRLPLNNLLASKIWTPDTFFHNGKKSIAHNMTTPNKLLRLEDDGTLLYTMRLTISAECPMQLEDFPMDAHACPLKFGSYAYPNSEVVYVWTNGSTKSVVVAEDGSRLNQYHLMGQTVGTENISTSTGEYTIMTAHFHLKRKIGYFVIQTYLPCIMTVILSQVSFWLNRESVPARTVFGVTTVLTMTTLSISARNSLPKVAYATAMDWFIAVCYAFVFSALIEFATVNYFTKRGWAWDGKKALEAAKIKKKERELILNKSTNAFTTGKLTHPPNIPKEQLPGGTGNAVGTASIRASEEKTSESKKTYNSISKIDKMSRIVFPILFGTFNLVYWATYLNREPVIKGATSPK
T2 sequence (P18508 39-466): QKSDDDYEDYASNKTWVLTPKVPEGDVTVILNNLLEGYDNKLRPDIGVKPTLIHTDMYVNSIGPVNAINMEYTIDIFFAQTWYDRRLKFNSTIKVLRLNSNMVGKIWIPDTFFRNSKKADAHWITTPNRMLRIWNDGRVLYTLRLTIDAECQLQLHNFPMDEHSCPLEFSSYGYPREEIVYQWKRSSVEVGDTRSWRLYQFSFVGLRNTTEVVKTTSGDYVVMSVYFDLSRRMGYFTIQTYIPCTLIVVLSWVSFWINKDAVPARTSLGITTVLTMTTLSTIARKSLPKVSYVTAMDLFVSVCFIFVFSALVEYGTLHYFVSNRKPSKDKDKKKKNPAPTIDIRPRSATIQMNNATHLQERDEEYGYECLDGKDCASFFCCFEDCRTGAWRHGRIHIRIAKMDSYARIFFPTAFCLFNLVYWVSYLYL
T1 sequence (P31644 32-462): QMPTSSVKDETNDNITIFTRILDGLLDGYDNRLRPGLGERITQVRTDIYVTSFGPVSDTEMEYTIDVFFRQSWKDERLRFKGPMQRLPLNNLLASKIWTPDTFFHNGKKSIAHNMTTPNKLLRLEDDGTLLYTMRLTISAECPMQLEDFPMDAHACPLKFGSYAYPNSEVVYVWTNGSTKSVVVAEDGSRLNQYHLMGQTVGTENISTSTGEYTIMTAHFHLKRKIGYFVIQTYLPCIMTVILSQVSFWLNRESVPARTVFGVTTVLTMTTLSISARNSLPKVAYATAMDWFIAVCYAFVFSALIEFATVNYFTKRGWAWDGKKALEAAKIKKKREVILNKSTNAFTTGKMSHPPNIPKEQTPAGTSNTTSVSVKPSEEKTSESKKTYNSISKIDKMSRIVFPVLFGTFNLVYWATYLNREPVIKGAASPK
T1 sequence (P28472 26-473 partner): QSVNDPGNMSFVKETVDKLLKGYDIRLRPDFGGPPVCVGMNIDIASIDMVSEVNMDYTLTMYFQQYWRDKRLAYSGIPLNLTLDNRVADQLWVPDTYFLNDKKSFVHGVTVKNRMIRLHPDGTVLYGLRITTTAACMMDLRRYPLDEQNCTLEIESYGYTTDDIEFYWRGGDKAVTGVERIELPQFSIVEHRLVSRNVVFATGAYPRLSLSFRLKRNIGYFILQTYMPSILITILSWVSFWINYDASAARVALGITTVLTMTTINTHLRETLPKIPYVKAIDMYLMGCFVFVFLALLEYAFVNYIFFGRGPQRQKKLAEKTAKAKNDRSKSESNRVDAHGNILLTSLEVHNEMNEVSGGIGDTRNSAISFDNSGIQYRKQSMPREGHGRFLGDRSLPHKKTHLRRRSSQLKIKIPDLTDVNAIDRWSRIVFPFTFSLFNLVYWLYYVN
T1 sequence (P18507 40-475): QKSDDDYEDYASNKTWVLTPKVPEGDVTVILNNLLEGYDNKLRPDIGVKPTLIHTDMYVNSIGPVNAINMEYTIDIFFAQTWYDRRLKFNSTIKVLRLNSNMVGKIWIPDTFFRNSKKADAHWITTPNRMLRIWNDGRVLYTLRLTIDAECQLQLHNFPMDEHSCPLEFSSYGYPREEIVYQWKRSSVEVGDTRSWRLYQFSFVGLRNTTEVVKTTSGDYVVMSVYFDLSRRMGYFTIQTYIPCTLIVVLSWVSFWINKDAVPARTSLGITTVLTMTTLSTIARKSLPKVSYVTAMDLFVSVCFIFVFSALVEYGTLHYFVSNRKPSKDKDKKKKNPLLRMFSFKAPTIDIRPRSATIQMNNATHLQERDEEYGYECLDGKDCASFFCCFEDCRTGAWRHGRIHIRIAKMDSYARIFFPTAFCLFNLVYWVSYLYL

GABA-elicited whole-cell current in the presence of compound ([1]; 1 μM, QPatch, same cell before and after addition, FIG. 1): smaller current | α5-GABAAR Relative Efficacy (to DMCM), Qpatch ([1]; Conc 1 μM, GABA EC10-20): −0.91 | occupancy of rat brain α5-GABAARs, dependence on dose (rat brain α5-GABAARs; 3 to 30 mg/kg p.o., FIG. 3): dose-dependent | receptor occupancy at 10 mg/kg (rat brain α5-GABAARs; po, 10 mg/kg p.o., inhibition of in vivo [3H]L655,708 binding, FIG. 3, read-out: occupancy of rat brain α5 GABAA receptors): 77%
Compound: COc1nc(-n2ccnc2)ccc1NC(=O)c1c(-c2ccccc2)noc1C [Example 1, N-(6-Imidazol-1-yl-2-methoxy-3-pyridyl)-5-methyl-3-phenyl-isoxazole-4-carboxamide]
